Measurements taken from ChEMBL document CHEMBL4393689, “Discovery of fluorescent coumarin-benzo[b]thiophene 1, 1-dioxide conjugates as mitochondria-targeting antitumor STAT3 inhibitors” (Eur J Med Chem, 2019).
Activity calls are given as the source filed them. The rule behind the calls is not given here.

Assays:
[1] = target: Signal transducer and activator of transcription 3 (Homo sapiens) (UniProt P40763); assay: Inhibition of STAT3 in human MDA-MB-231 cells assessed as decrease in STAT3-DNA binding at 1 to 4 uM incubated for 24 hrs by electrophoretic mobility shift assay; type: cell-based
HepG2 = assay: Antiproliferative activity against human HepG2 cells assessed as reduction in cell viability incubated for 48 hrs by MTT assay; type: functional, cell-based; details: HepG2, 48 h
HCT-116 = assay: Potency index, ratio of IC50 of BTP to ratio of IC50 of compound for antiproliferative activity against human HCT116 cells assessed as reduction in cell viability incubated for 48 hrs by MTT assay; type: functional
MCF7 = assay: Potency index, ratio of IC50 of BTP to ratio of IC50 of compound for antiproliferative activity against human MCF7 cells assessed as reduction in cell viability incubated for 48 hrs by MTT assay; type: functional
[2] = Selectivity index, ratio of IC50 for human MCF10A cells to IC50 for human MDA-MB-231 cells; type: toxicity; details: MCF10A cells versus MDA-MB-231 cells, read-out: Ratio IC50
MDA-MB-231 [3] = assay: Induction of apoptosis in human MDA-MB-231 cells assessed as late apoptotic cells at 1 uM incubated for 24 hrs by annexinV-FITC and propidium iodide staining based flow cytometric analysis (reference value: 1.0%); type: functional
MDA-MB-231 [4] = assay: Induction of apoptosis in human MDA-MB-231 cells assessed as viable cells at 2 uM incubated for 24 hrs by annexinV-FITC and propidium iodide staining based flow cytometric analysis (reference value: 95.1%); type: functional; details: MDA-MB-231, 24 h, read-out: Activity
MDA-MB-231 [5] = assay: Induction of apoptosis in human MDA-MB-231 cells assessed as early apoptotic cells at 2 uM incubated for 24 hrs by annexinV-FITC and propidium iodide staining based flow cytometric analysis (reference value: 3.2%); type: functional
MDA-MB-231 [6] = assay: Induction of apoptosis in human MDA-MB-231 cells incubated for 24 hrs by annexinV-FITC and propidium iodide staining based flow cytometric analysis; type: functional, cell-based
MDA-MB-231 [7] = assay: Induction of apoptosis in human MDA-MB-231 cells assessed as increase in cleaved caspase-3 levels at 1 to 4 uM incubated for 24 hrs by Western blot analysis; type: functional, cell-based
[8] = Drug accumulation in mitochondria of human MDA-MB-231 cells at 2 uM incubated for 60 mins by mitotracker red staining based confocal microscopy; type: ADME; details: mda-mb-231, 1 h
[9] = Drug accumulation in mitochondria of human MCF7 cells at 5 uM incubated for 60 mins by mitotracker red staining based confocal microscopy; type: ADME; details: mcf7, 1 h
[10] = target: Signal transducer and activator of transcription 3 (Homo sapiens) (UniProt P40763); assay: Inhibition of STAT3 in human MDA-MB-231 cells assessed as decrease in STAT3 phosphorylation at Tyr705 residue incubated for 24 hrs by Western blot analysis; type: cell-based
[11] = target: Signal transducer and activator of transcription 3 (Homo sapiens) (UniProt P40763); assay: Inhibition of STAT3 in human MDA-MB-231 cells assessed as decrease in STAT3 phosphorylation at Ser727 residue incubated for 24 hrs by Western blot analysis; type: cell-based
[12] = target: T1, Signal transducer and activator of transcription 1-alpha/beta (Homo sapiens) (UniProt P42224); assay: Inhibition of STAT1 in human MDA-MB-231 cells assessed as decrease in STAT1 phosphorylation at Y701 residue at 1 to 4 uM incubated for 24 hrs by Western blot analysis; type: cell-based
T1 sequence (whole entry): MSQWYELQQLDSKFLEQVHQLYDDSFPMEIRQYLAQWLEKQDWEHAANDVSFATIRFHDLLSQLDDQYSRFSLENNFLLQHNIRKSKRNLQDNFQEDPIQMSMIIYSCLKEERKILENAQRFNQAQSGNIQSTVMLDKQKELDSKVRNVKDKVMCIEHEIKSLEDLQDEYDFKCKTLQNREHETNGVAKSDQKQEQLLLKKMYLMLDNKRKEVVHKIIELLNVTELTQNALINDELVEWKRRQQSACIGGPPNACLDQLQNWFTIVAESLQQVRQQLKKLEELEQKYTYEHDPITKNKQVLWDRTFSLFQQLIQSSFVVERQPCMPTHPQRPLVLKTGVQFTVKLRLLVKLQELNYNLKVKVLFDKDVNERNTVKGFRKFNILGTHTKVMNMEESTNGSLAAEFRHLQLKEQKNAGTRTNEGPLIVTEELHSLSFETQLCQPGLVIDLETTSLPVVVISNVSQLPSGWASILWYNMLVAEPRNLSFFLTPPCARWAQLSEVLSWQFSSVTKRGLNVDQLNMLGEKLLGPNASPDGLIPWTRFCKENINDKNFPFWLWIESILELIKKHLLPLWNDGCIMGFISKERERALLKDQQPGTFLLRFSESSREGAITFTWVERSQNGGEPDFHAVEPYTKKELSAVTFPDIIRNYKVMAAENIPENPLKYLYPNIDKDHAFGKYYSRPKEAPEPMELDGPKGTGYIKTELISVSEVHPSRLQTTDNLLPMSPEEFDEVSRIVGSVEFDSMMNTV

[13] = target: Tyrosine-protein kinase JAK2 (Homo sapiens) (UniProt O60674); assay: Inhibition of JAK2 in human MDA-MB-231 cells assessed as reduction in JAK2 phosphorylation at 1 to 4 uM incubated for 24 hrs by Western blot analysis; type: cell-based
[14] = target: Signal transducer and activator of transcription 3 (Homo sapiens) (UniProt P40763); assay: Inhibition of STAT3 in human MDA-MB-231 cells assessed as decrease in cyclin D1 protein expression incubated for 24 hrs by Western blot analysis; type: cell-based
4T1 [15] = assay: Antitumor activity against mouse 4T1 cells implanted in BALB/c mouse assessed as reduction in tumor volume at 10 mg/kg, ip for 14 days; type: functional; details: 4T1, ip, 336 h
4T1 [16] = assay: Antitumor activity against mouse 4T1 cells implanted in BALB/c mouse assessed as reduction in tumor weight at 10 mg/kg, ip for 14 days; type: functional; details: 4T1, ip, 336 h

Sequence of Signal transducer and activator of transcription 3 (Homo sapiens) (P40763 whole entry): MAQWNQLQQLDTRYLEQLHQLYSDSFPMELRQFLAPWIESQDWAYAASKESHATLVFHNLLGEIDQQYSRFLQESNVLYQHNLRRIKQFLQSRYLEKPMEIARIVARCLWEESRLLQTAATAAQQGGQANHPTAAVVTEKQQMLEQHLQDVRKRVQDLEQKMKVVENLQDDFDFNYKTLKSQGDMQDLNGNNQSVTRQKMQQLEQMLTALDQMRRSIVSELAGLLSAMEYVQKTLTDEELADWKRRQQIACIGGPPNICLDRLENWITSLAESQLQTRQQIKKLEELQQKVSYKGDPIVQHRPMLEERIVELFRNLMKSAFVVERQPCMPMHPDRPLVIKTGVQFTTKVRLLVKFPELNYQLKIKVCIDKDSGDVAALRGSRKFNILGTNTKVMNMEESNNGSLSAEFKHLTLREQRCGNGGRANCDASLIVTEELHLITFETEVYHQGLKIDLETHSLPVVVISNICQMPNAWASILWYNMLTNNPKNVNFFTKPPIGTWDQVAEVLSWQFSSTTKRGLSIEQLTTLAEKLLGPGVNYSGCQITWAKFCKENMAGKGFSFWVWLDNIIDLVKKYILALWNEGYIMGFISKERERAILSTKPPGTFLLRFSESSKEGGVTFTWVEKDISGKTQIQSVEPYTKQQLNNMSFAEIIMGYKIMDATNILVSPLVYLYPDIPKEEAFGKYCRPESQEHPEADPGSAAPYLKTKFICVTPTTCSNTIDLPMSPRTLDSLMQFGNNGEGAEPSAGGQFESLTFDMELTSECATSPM
Sequence of Tyrosine-protein kinase JAK2 (Homo sapiens) (O60674 whole entry): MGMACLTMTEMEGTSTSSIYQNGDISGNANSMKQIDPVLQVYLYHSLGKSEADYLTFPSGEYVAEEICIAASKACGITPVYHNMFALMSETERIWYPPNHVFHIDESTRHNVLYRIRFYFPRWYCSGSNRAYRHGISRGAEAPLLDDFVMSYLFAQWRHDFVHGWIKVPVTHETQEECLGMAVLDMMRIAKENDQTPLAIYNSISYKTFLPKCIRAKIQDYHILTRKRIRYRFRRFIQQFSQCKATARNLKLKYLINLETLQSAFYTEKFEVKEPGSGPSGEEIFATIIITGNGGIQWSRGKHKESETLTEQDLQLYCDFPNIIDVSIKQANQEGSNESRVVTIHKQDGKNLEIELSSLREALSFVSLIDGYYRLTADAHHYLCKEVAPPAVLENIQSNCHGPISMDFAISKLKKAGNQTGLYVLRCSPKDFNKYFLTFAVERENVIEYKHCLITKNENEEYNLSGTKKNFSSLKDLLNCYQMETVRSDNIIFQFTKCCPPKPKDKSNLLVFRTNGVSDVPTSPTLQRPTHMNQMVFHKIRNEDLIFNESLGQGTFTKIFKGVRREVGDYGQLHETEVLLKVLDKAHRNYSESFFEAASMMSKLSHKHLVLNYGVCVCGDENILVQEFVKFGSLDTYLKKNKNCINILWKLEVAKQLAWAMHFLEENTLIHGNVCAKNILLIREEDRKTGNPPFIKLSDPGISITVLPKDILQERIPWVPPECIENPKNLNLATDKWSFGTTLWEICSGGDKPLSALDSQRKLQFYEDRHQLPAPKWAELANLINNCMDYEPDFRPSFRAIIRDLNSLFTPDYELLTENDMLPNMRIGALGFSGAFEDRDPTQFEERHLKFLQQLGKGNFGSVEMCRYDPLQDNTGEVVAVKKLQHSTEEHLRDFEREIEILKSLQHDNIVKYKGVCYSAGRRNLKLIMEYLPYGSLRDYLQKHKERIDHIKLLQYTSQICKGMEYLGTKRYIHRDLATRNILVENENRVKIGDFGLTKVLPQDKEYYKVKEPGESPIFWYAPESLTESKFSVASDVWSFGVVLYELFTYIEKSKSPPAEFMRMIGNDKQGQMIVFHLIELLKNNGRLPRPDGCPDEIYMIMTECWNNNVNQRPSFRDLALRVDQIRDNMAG

inhibition [1]: Active | IC50 (HepG2): 2.88 µM | Drug uptake [8]: Active | Drug uptake [9]: Active | inhibition [10]: Dose-dependent effect | inhibition [11]: Dose-dependent effect | inhibition [12]: inactive | inhibition [13]: inactive | inhibition [14]: Dose-dependent effect
Structure (SMILES): CCN(CC)c1ccc2cc(C(=O)N3CCN(C(=O)C4=Cc5c(Br)cccc5S4(=O)=O)CC3)c(=O)oc2c1
Ratio IC50 (HCT-116): 4.6 - 19 | Ratio IC50 (MCF7): 4.6 - 19 | selectivity ratio [2]: 10.2 | Activity (MDA-MB-231 [3]): 1.2% | viability at 2 µM (MDA-MB-231 [4]): 89.3% | Activity (MDA-MB-231 [5]): 7.4% | Activity (MDA-MB-231 [6]): Dose-dependent effect | Activity (MDA-MB-231 [7]): Active | inhibition in vivo at 10 mg/kg (4T1 [15]): 52.3% | inhibition in vivo at 10 mg/kg (4T1 [16]): 39.7%
